In patent publication US20250136634A1, “CAP ANALOG AND USE THEREOF” (SHANGHAI HONGENE BIOTECH CORPORATION, priority 2021, published 2025):

Columns and labels:
T7 RNA polymerase = T7 RNA polymerase (Escherichia phage T7, UniProt P00573); assay: Capping efficiency of mRNA from T7 in vitro transcription, RNaseH cleavage and LC-MS (Example 2); format: biochemical; conditions: Example 2, T7 RNA polymerase IVT at 37° C. for 2 hs
Text: (5) Treatment with Antarctic Phosphatase:

Hela cells (ATCC CCL-2) = assay: Protein expression of Gaussia luciferase mRNA with various initial caps in transfected Hela cells; format: cell-based; conditions: 2 ug mRNA/well, 24 h after transfection, relative to ^m7GpppApG cap, mean±SD; for Relative Luciferase Unit RLU (after purification): HPLC-purified mRNA; for Relative Luciferase Unit RLU (no purification): unpurified mRNA
Description: In this example, Hela cells (ATCC CCL-2) were transfected with luciferase mRNAs (Gaussia luciferase) comprising various initial cap structures (the initial cap nucleotide structures comprised are: ^m7GpppApG, ^m7GpppA2′Ome pG, ^m7G3′OmepppA2′O-ethylpG, ^m7G2′OmepppA2′O-ethylpG, ^m7G3′OmepppA2′O-MOEpG, ^m7G2′O-mepppA2′O-MOEpG, ^m7Gppp(N6-methyladenine)2′O-MOEpG, ^m7G2′OmepppC2′O-ethylpC, ^m7G3′OmepppA2′O-MOEpU), and the signal intensity of luciferase was detected by microplate reader after 24 h. The fluorescence signal intensity was proportional to the abundance of protein expression. Hela cells were seeded at a density of 4×10^5/well in 6-well plates, and transfection was carried out when the cell density reached approximately 80%. Each well was transfected with 2 ug mRNA, and the transfection reagent was Lipofectamine MessengerMAX Transfection Reagent (Invitrogen), and the transfection steps were carried out according to the instructions. Twenty-four hours after transfection, the signal intensity of luciferase was measured on microplate reader. Measurement of luciferase fluorescence: the transfected cell culture solution was transferred to a 1.5 mL centrifuge tube and centrifuged, 10 ul of cell supernatant was taken and added to a 96-well plate, and 50 ul of 10 ng/ml substrate was added, and then the fluorescence intensity was measured on Synergy HI (BioTek) instrument. The expression of each mRNA was required to be measured 6 times and the expression results were relative values to the results of ^m7GpppApG cap.
The fluorescence signal intensity was proportional to the abundance of protein expression.
Hela cells were seeded at a density of 4×10^5/well in 6-well plates, and transfection was carried out when the cell density reached approximately 80%. Each well was transfected with 2 ug mRNA, and the transfection reagent was Lipofectamine MessengerMAX Transfection Reagent (Invitrogen), and the transfection steps were carried out according to the instructions. Twenty-four hours after transfection, the signal intensity of luciferase was measured on microplate reader. Measurement of luciferase fluorescence: the transfected cell culture solution was transferred to a 1.5 mL centrifuge tube and centrifuged, 10 ul of cell supernatant was taken and added to a 96-well plate, and 50 ul of 10 ng/ml substrate was added, and then the fluorescence intensity was measured on Synergy HI (BioTek) instrument. The expression of each mRNA was required to be measured 6 times and the expression results were relative values to the results of ^m7GpppApG cap.

Chain of T7 RNA polymerase (P00573 whole entry): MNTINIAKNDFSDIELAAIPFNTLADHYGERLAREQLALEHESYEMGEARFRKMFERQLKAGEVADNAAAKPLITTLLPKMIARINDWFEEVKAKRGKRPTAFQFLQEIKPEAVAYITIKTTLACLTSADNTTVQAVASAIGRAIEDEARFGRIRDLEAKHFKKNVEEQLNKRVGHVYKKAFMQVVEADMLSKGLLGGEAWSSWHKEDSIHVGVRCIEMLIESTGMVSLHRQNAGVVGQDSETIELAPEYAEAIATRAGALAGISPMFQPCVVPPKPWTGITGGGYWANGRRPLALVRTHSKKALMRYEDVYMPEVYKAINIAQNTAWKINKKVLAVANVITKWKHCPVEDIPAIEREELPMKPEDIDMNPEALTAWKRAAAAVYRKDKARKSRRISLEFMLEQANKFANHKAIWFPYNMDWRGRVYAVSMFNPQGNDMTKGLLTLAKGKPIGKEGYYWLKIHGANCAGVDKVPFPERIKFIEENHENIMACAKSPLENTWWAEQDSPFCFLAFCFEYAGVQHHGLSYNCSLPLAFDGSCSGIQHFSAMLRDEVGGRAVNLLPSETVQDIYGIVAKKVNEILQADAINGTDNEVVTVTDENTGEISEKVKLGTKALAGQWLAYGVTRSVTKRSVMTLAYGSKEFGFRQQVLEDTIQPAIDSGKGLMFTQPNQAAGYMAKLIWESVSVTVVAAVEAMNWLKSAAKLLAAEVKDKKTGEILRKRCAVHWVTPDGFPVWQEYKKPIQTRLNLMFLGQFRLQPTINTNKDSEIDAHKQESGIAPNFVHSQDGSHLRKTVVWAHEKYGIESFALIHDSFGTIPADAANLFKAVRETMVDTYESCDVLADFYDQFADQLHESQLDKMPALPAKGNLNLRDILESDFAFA

| Substance | Capping efficiency (T7 RNA polymerase) | Relative Luciferase Unit RLU (after purification) (Hela cells (ATCC CCL-2); Example 2) | Relative Luciferase Unit RLU (no purification) (Hela cells (ATCC CCL-2); Example 2) | Relative Luciferase Unit RLU (after purification) (Hela cells (ATCC CCL-2); Example 3 (IVT at 50° C.)) | Relative Luciferase Unit RLU (no purification) (Hela cells (ATCC CCL-2); Example 3 (IVT at 50° C.)) |
| --- | --- | --- | --- | --- | --- |
| ^m7G2′OmepppA2′O-MOEpG | 88% | 5.11 ± 0.17 | 4.47 ± 0.07 | – | – |
| ^m7G2′OmepppA2′O-ethylpG | 92% | 3.34 ± 0.01 | 2.83 ± 0.11 | – | – |
| ^m7G2′OmepppC2′O-ethylpC | 92% | 1.71 ± 0.18 | 1.33 ± 0.06 | – | – |
| ^m7G3′OmepppA2′O-MOEpG | 89% | 4.18 ± 0.16 | 3.3 ± 0.13 | – | – |
| ^m7G3′OmepppA2′O-MOEpU | 93% | 1.76 ± 0.12 | 1.32 ± 0.06 | – | – |
| ^m7G3′OmepppA2′O-ethylpG | 94% | 2.73 ± 0.03 | 2.63 ± 0.15 | – | – |
| ^m7GAlpha-L-LNApppA2′O-ethyl pG | – | – | – | 2.97 ± 0.09 | 2.67 ± 0.02 |
| ^m7GBeta-D-LNApppA2′O-MOEpG | – | – | – | 3.45 ± 0.01 | 3 ± 0.12 |
| ^m7Gppp(N6-methyladenine)2′O-MOEpG | 84% | 3.23 ± 0.07 | 2.98 ± 0.02 | – | – |
| ^m7GpppA2′Ome pG [reference compound] | 97% | 3.3 ± 0.13 | 2.94 ± 0.02 | 1.56 ± 0.11 | 1.25 ± 0.11 |
| ^m7GpppApG [reference compound] | 98% | 1 ± 0.19 | 1 ± 0.02 | 1 ± 0.12 | 1 ± 0.02 |
